Measured values taken from ChEMBL document CHEMBL5058564, “EUbOPEN Chemogenomics Library 2 (Incucyte)” (2022).

Key:
Format in all cases: toxicity, cell-based
HEK-293T = test: Incucyte cell viability with HEK293T; details: human, 10 µM, compound concentration 10 uM
Fibroblast = test: Incucyte cell viability with human fibroblast; details: 10 µM, compound concentration 10 uM
U2OS = test: Incucyte cell viability with U2OS; details: human, 10 µM, compound concentration 10 uM
[1] = 6 h, replicate number 1, timepoint 6 hours
[2] = 6 h, replicate number 2, timepoint 6 hours
[3] = 12 h, replicate number 1, timepoint 12 hours
[4] = 12 h, replicate number 2, timepoint 12 hours
[5] = 18 h, replicate number 1, timepoint 18 hours
[6] = 18 h, replicate number 2, timepoint 18 hours
[7] = 24 h, replicate number 1, timepoint 24 hours
[8] = 24 h, replicate number 2, timepoint 24 hours
[9] = 0 h, replicate number 1, timepoint 0 hours
[10] = 0 h, replicate number 2, timepoint 0 hours
Also: unitless GR value; below 1 slowed growth and below 0 cell loss.

Structure (SMILES)	Growth Rate (HEK-293T; [1])	Growth Rate (HEK-293T; [2])	Growth Rate (HEK-293T; [3])	Growth Rate (HEK-293T; [4])	Growth Rate (HEK-293T; [5])	Growth Rate (HEK-293T; [6])	Growth Rate (HEK-293T; [7])	Growth Rate (HEK-293T; [8])	Growth Rate (Fibroblast; [1])	Growth Rate (Fibroblast; [2])	Growth Rate (Fibroblast; [3])	Growth Rate (Fibroblast; [5])	Growth Rate (Fibroblast; [7])	Growth Rate (U2OS; [9])	Growth Rate (U2OS; [1])	Growth Rate (U2OS; [4])	Growth Rate (U2OS; [5])	Growth Rate (Fibroblast; [6])	Growth Rate (Fibroblast; [8])	Growth Rate (Fibroblast; [4])	other results
CCC(=O)N1CC[C@H](Nc2ncnc3c2CN(c2cnc(OC)c(C(F)(F)F)c2)CC3)C1 [LENIOLISIB]	0.27	-0.14	0.69	0.28	0.81	0.66	0.96	0.71	-0.68	0.91	0.26	0.75	0.72	0.57	0.65	0.58	0.83				Growth Rate (U2OS; [10]): 0.52; Growth Rate (U2OS; [2]): 0.66; Growth Rate (U2OS; [6]): 0.79; Growth Rate (U2OS; [7]): 0.81; Growth Rate (U2OS; [8]): 0.79
COc1ccc(-n2c(C)c([N+](=O)[O-])c3ccc(O)cc32)cc1										0.98					-0.36	0.73	0.7	0.87	0.5		Growth Rate (HEK-293T; [9]): 0.39; Growth Rate (U2OS; [10]): -1; Growth Rate (U2OS; [2]): 0.75; Growth Rate (U2OS; [3]): 0.46; Growth Rate (U2OS; [6]): 0.71; Growth Rate (U2OS; [7]): 0.63; Growth Rate (U2OS; [8]): 0.67
CC(C)n1cc(-c2ccc(N3CCN(C)CC3)c(NC(=O)c3ccc(-c4ccncc4)o3)c2)cn1	-0.29	-0.21	-0.21	-0.04	-0.16	0.34	0.11	0.64	-0.14	0.39	0.05	-0.06	0.03	0.32	-0.04		0.95	0.81	0.94	0.57	Growth Rate (Fibroblast; [10]): 0.57; Growth Rate (U2OS; [10]): -1; Growth Rate (U2OS; [3]): 0.36
CC1=C(C)C(=O)C(C(C)(C)CC(=O)N(CCCCSC[C@H]2O[C@@H](n3cnc4c(N)ncnc43)[C@@H]3OC(C)(C)O[C@@H]32)Cc2cccc(-c3ccc(Cl)cc3)c2)=C(C)C1=O			0.85	0.97		0.94	0.96							-0.32		0.93	0.49				Growth Rate (HEK-293T; [9]): 0.72; Growth Rate (HEK-293T; [10]): 0.07; Growth Rate (Fibroblast; [9]): 0.04; Growth Rate (Fibroblast; [10]): 0.08; Growth Rate (U2OS; [3]): 0.3; Growth Rate (U2OS; [6]): 0.87; Growth Rate (U2OS; [7]): 0.63; Growth Rate (U2OS; [8]): 0.92
Nc1nc(-c2ccco2)c2cnn(Cc3ccccc3F)c2n1	-0.23	-0.21	-0.22	-0.25	-0.17	-0.05	-0.12	0.12	-0.86	-0.89	-0.81	-0.75	-0.66	-0.81	0.66	0.27	0.95	-0.29	-0.09	-0.55	Growth Rate (U2OS; [2]): 0.28; Growth Rate (U2OS; [6]): 0.48; Growth Rate (U2OS; [7]): 0.89; Growth Rate (U2OS; [8]): 0.48
Cc1cc(-c2ccc3c(c2)CC[C@H]3N2CC3(CCN(C(=O)Cc4cn5cc(C)sc5n4)CC3)C2)ncn1 [PF-5190457]					0.98				-0.34		0.22	0.37	0.57			0.99	0.94			0.88	Growth Rate (HEK-293T; [10]): 0.77; Growth Rate (Fibroblast; [10]): 0.62; Growth Rate (U2OS; [10]): -0.98
CCc1nn2c(C)cc(C)nc2c1Cc1ccc(-c2nnc(C3CCNCC3)o2)cc1	0.9				0.88				-0.59	0.22	-0.55	-0.43	-0.25					0.56	0.65	0.37	Growth Rate (HEK-293T; [10]): 0.38; Growth Rate (U2OS; [10]): 0.09
Cc1nc2ccc(Oc3ccc(F)cc3)cc2c(=O)n1C[C@H]1CCCN(C(C)C)C1.Cl	0.01	0.52	-0.18	0.29	-0.23	0.13	-0.2	-0.05	-0.24	-0.65	-0.26	-0.42	-0.38		-0.6	0.97		-0.21	-0.28	-0.42	Growth Rate (U2OS; [2]): 0.98; Growth Rate (U2OS; [6]): 0.96
Br.Br.c1ncc(CC2CCNCC2)[nH]1	0.8		0.99	0.73	0.81	0.93	0.95	0.94	0.88	0.53	0.69	0.72	0.77	0.94	0.57			0.93	0.76	0.81	Growth Rate (HEK-293T; [9]): 0.53; Growth Rate (HEK-293T; [10]): 0.07; Growth Rate (Fibroblast; [9]): 0.49; Growth Rate (Fibroblast; [10]): 0.06; Growth Rate (U2OS; [3]): 0.9
COC(=O)[C@H](CCCNC(=N)N)NC(=O)CCCc1c(-c2ccccc2)[nH]c2c(F)cc(F)cc12.O=C(O)C(F)(F)F	0.68	0.4	0.53	0.32	0.64	0.5	0.66	0.53		0.39				-0.03	0.46		0.8	0.38	0.46	0.65	Growth Rate (HEK-293T; [9]): 0.87; Growth Rate (HEK-293T; [10]): 0.81; Growth Rate (Fibroblast; [9]): 0.79; Growth Rate (Fibroblast; [10]): 0.86; Growth Rate (U2OS; [3]): 0.64
